The text below walks through data of ChEMBL document CHEMBL5335848, “Penicilloneines A and B, Quinolone-Citrinin Hybrids from a Starfish-Derived Penicillium sp” (2024).

Values after ≈ are worked out from the molar mass of the structure shown. Active and inactive are the calls of the source. The rule behind the calls is not given here.

Experiment [1] relates to Colletotrichum gloeosporioides. Nature of the experiment: Antifungal activity against Colletotrichum gloeosporioides assessed as inhibition of mycelial growth incubated for 3 days by cross-bonded method. Format: functional. The conditions noted are these: for Activity: time 3.0 day; for LC50: 72 h, time 3 day.
The test system of experiment [2] is Colletotrichum gloeosporioides. Nature of the experiment: Antifungal activity against Colletotrichum gloeosporioides assessed as fold decrease in 3-carboxymuconate cyclase encoding gene expression by qRT-PCR analysis relative to control. The experiment is classed as functional. A general note: In qPCR the cycle at which signal appears reflects the starting amount.

Experiment [3] deals with Colletotrichum gloeosporioides. Nature of the experiment: Antifungal activity against Colletotrichum gloeosporioides assessed as increase in putative hydrolase encoding gene expression by RNA-seq analysis. The experiment is classed as functional, organism-based.
Experiment [4] concerns Colletotrichum gloeosporioides. As to the kind of experiment: Antifungal activity against Colletotrichum gloeosporioides assessed as fold increase in glycosyl hydrolase encoding gene expression by qRT-PCR analysis relative to control. Format: functional.
Experiment [5] has as its system Colletotrichum gloeosporioides. As to the kind of experiment: Antifungal activity against Colletotrichum gloeosporioides assessed as induction of morphological changes by measuring appearance of evident craters on surface at 5 mg/L measured after 48 hrs by SEM analysis. Format: functional, organism-based.
Experiment [6] relates to Colletotrichum gloeosporioides. As to the kind of experiment: Antifungal activity against Colletotrichum gloeosporioides assessed as induction of morphological changes by measuring appearance of twisted hyphae at 5 mg/L measured after 48 hrs by SEM analysis. The experiment is classed as functional, organism-based.
In experiment [7] the test system is Colletotrichum gloeosporioides. As to the kind of experiment: Antifungal activity against Colletotrichum gloeosporioides assessed as induction of morphological changes by measuring increase in low density particles in cytoplasm at 5 mg/L incubated for 24 hrs by TEM analysis. Format: functional, organism-based.
The subject of experiment [8] is Colletotrichum gloeosporioides. Nature of the experiment: Antifungal activity against Colletotrichum gloeosporioides assessed as fold increase in leucine aminopeptidase encoding gene expression by qRT-PCR analysis relative to control. The experiment is classed as functional.
Experiment [9] concerns Colletotrichum gloeosporioides. Nature of the experiment: Antifungal activity against Colletotrichum gloeosporioides assessed as fold increase in beta-galactosidase encoding gene expression by qRT-PCR analysis relative to control. Format: functional.
The subject of experiment [10] is Colletotrichum gloeosporioides. As to the kind of experiment: Antifungal activity against Colletotrichum gloeosporioides assessed as decrease in phosphoketolase encoding gene expression by RNA-seq analysis. Format: functional, organism-based.
The test system of experiment [11] is Colletotrichum gloeosporioides. Nature of the experiment: Antifungal activity against Colletotrichum gloeosporioides assessed as fold decrease in oxalate decarboxylase encoding gene expression by qRT-PCR analysis relative to control. Format: functional.
Experiment [12] has as its system Colletotrichum gloeosporioides. Nature of the experiment: Antifungal activity against Colletotrichum gloeosporioides assessed as increase in glycosyl hydrolase encoding gene expression by RNA-seq analysis. Format: functional, organism-based.
The subject of experiment [13] is Colletotrichum gloeosporioides. Nature of the experiment: Antifungal activity against Colletotrichum gloeosporioides assessed as induction of morphological changes by measuring degradation of plasma membrane at 5 mg/L incubated for 24 hrs by TEM analysis. Format: functional, organism-based.
The subject of experiment [14] is Colletotrichum gloeosporioides. Nature of the experiment: Antifungal activity against Colletotrichum gloeosporioides assessed as induction of morphological changes by measuring appearance of distorted hyphae at 5 mg/L measured after 48 hrs by SEM analysis. The experiment is classed as functional, organism-based.
Experiment [15] concerns Colletotrichum gloeosporioides. Nature of the experiment: Antifungal activity against Colletotrichum gloeosporioides assessed as induction of morphological changes by measuring appearance of cavities at 5 mg/L incubated for 24 hrs by TEM analysis. The experiment is classed as functional, organism-based.
The test system of experiment [16] is Colletotrichum gloeosporioides. Nature of the experiment: Antifungal activity against Colletotrichum gloeosporioides assessed as fold increase in acetylcholinesterase encoding gene expression by qRT-PCR analysis relative to control. Format: functional.
Experiment [17] deals with Colletotrichum gloeosporioides. Nature of the experiment: Antifungal activity against Colletotrichum gloeosporioides assessed as induction of morphological changes by measuring appearance of clustered/bundled hyphae at 5 mg/L measured after 48 hrs by SEM analysis. Format: functional, organism-based.
For experiment [18], the system named is Colletotrichum gloeosporioides. Nature of the experiment: Antifungal activity against Colletotrichum gloeosporioides assessed as induction of morphological changes by measuring appearance of vacuolizations at 5 mg/L incubated for 24 hrs by TEM analysis. The experiment is classed as functional, organism-based.
The subject of experiment [19] is Colletotrichum gloeosporioides. Nature of the experiment: Antifungal activity against Colletotrichum gloeosporioides assessed as increase in beta-galactosidase encoding gene expression by RNA-seq analysis. The experiment is classed as functional, organism-based.
Experiment [20] deals with Colletotrichum gloeosporioides. As to the kind of experiment: Antifungal activity against Colletotrichum gloeosporioides assessed as decrease in oxalate decarboxylase encoding gene expression by RNA-seq analysis. The experiment is classed as functional, organism-based.
The test system of experiment [21] is Colletotrichum gloeosporioides. As to the kind of experiment: Antifungal activity against Colletotrichum gloeosporioides assessed as fold increase in putative hydrolase encoding gene expression by qRT-PCR analysis relative to control. Format: functional.
The subject of experiment [22] is Colletotrichum gloeosporioides. Nature of the experiment: Antifungal activity against Colletotrichum gloeosporioides assessed as fold decrease in phosphoketolase encoding gene expression by qRT-PCR analysis relative to control. The experiment is classed as functional.
Experiment [23] relates to Colletotrichum gloeosporioides. Nature of the experiment: Antifungal activity against Colletotrichum gloeosporioides assessed as fold decrease in pyruvate decarboxylase encoding gene expression by qRT-PCR analysis relative to control. Format: functional.
The subject of experiment [24] is Colletotrichum gloeosporioides. Nature of the experiment: Antifungal activity against Colletotrichum gloeosporioides assessed as increase in leucine aminopeptidase encoding gene expression by RNA-seq analysis. The experiment is classed as functional, organism-based.
Experiment [25] relates to Colletotrichum gloeosporioides. Nature of the experiment: Antifungal activity against Colletotrichum gloeosporioides assessed as induction of morphological changes by measuring aggregation of particles into clusters in cytoplasm at 5 mg/L incubated for 24 hrs by TEM analysis. Format: functional, organism-based.
Experiment [26] relates to Colletotrichum gloeosporioides. As to the kind of experiment: Antifungal activity against Colletotrichum gloeosporioides assessed as fold increase in lipase encoding gene expression by qRT-PCR analysis relative to control. The experiment is classed as functional.
Experiment [27] relates to Colletotrichum gloeosporioides. As to the kind of experiment: Antifungal activity against Colletotrichum gloeosporioides assessed as induction of morphological changes by measuring disappearance of organelles at 5 mg/L incubated for 24 hrs by TEM analysis. The experiment is classed as functional, organism-based.
The test system of experiment [28] is Colletotrichum gloeosporioides. As to the kind of experiment: Antifungal activity against Colletotrichum gloeosporioides assessed as decrease in pyruvate decarboxylase encoding gene expression by RNA-seq analysis. The experiment is classed as functional, organism-based.
Experiment [29] has as its system Colletotrichum gloeosporioides. Nature of the experiment: Antifungal activity against Colletotrichum gloeosporioides assessed as induction of morphological changes by measuring appearance of disorganized organelles at 5 mg/L incubated for 24 hrs by TEM analysis. The experiment is classed as functional, organism-based.
The subject of experiment [30] is Colletotrichum gloeosporioides. As to the kind of experiment: Antifungal activity against Colletotrichum gloeosporioides assessed as induction of morphological changes by measuring separation of plasma membrane from cell wall at 5 mg/L incubated for 24 hrs by TEM analysis. Format: functional, organism-based.
For experiment [31], the system named is Colletotrichum gloeosporioides. Nature of the experiment: Antifungal activity against Colletotrichum gloeosporioides assessed as induction of morphological changes by measuring reduction in high density particles in cytoplasm at 5 mg/L incubated for 24 hrs by TEM analysis. The experiment is classed as functional, organism-based.
Experiment [32] deals with Colletotrichum gloeosporioides. Nature of the experiment: Antifungal activity against Colletotrichum gloeosporioides assessed as decrease in 3-carboxymuconate cyclase encoding gene expression by RNA-seq analysis. The experiment is classed as functional, organism-based.
Experiment [33] concerns Colletotrichum gloeosporioides. As to the kind of experiment: Antifungal activity against Colletotrichum gloeosporioides assessed as increase in acetylcholinesterase encoding gene expression by RNA-seq analysis. The experiment is classed as functional, organism-based.
In experiment [34] the test system is Colletotrichum gloeosporioides. Nature of the experiment: Antifungal activity against Colletotrichum gloeosporioides assessed as increase in lipase encoding gene expression by RNA-seq analysis. The experiment is classed as functional, organism-based.
The test system of experiment [35] is Colletotrichum gloeosporioides. As to the kind of experiment: Antifungal activity against Colletotrichum gloeosporioides assessed as disruption of cell wall at 5 mg/L incubated for 24 hrs by TEM analysis. Format: functional, organism-based.

In the case of `Cn1c(=O)cc(O)c2ccccc21`, in experiment [1], the result was Active.

As to `Cc1c(O)c(Cc2c(O)c3ccccc3n(C)c2=O)c(O)c2c1[C@H](C)[C@@H](C)OC2=O`, the LC50 in experiment [1] was determined as 1.51 µg/mL (≈ 3.69 µM).

In the case of `Cc1c(O)c(C(=O)O)c(O)c2c1[C@H](C)[C@@H](C)OC2=O`, the result in [1] was Active.

On to `CC1=C2C(=CO[C@H](C)[C@H]2C)C(O)=C(C(=O)O)C1=O`, for which the result in experiment [1] was Active.

Regarding `CC1=C2C(=CO[C@H](C)[C@H]2C)C(O)=C(Cc2c(O)c3ccccc3n(C)c2=O)C1=O`, the “fold change (FC)” value in experiment [2] was 386; in experiment [4] it was 1.7; in experiment [8], 3.5; in experiment [9] it was 4.7; in experiment [11] it was 23.8; in experiment [16], 6. Besides, the “fold change (FC)” value turned out to be 14 in experiment [21], 1.47 in experiment [22], 215 in [23] and 8.9 in experiment [26]. In addition, in [1], the LC50 is 0.02 µg/mL (≈ 0.0508 µM). Further, the outcome in experiment [3], in experiment [5], in experiment [6], in experiment [7], in experiment [10] and in experiment [12] was Active. The outcome in experiment [13], in experiment [14], in [15], in [17], in experiment [18] and in experiment [19] was Active. The outcome in [20], in experiment [24], in [25], in experiment [27], in experiment [28] and in experiment [29] was Active. Moreover, the result in experiment [30], in experiment [31], in [32], in [33] and in [34] was Active.

Turning to Mancozeb, the outcome in experiment [1], in experiment [35] and in [18] was Active.

In general, LC50 refers to the concentration that kills 50% of the test population.
